Test results: the supplement of paper PMC10307832

How the values were obtained:
Assay in all cases: relative viability (nuclei count vs DMSO), 5 days (fraction); higher = more cells survive
COR-L 105 = test system: COR-L 105
Method in brief: (§1)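 Relative viability is defined as nuclei in treated wells over nuclei in vehicle wells. Duplicate plates were run and medians reported. Lung cancer cell lines in 1536-well plates were dosed by pin tool one day after seeding, with one drug or with a fixed anchor-drug dose plus five library-drug doses (not always all listed) in √10 steps, and nuclei were counted after 5 days.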

NCI-H23 = test system: NCI-H23
Method in brief: as §1

HCC-827 = test system: HCC-827
Method in brief: as §1

LXF-289 = test system: LXF-289
Method in brief: as §1

UMC-11 = test system: UMC-11
Method in brief: as §1

NCI-H2085 = test system: NCI-H2085
Method in brief: as §1

NCI-H2405 = test system: NCI-H2405
Method in brief: as §1

LC-2-ad = test system: LC-2-ad
Method in brief: as §1

H3255 = test system: H3255
Method in brief: as §1

LU99A = test system: LU99A
Method in brief: as §1

LCLC-103H = test system: LCLC-103H
Method in brief: as §1

NCI-H1437 = test system: NCI-H1437
Method in brief: as §1

NCI-H1651 = test system: NCI-H1651
Method in brief: as §1

201T = test system: 201T
Method in brief: as §1

NCI-H322M = test system: NCI-H322M
Method in brief: as §1

CAL-12T = test system: CAL-12T
Method in brief: as §1

LK-2 = test system: LK-2
Method in brief: as §1

BEN = test system: BEN
Method in brief: as §1

HARA = test system: HARA
Method in brief: as §1

NCI-H2228 = test system: NCI-H2228
Method in brief: as §1

RERF-LC-KJ = test system: RERF-LC-KJ
Method in brief: as §1

HCC-15 = test system: HCC-15
Method in brief: as §1

`O=C(O)CCCCC(CCSCc1ccccc1)SCc1ccccc1` (stereo not drawn) [CPI-613] + Cc1cc(Nc2cc(N3CCN(C)CC3)nc(Sc3ccc(NC(=O)C4CC4)cc3)n2)n[nH]1 [Tozasertib] (partner 0.1 µM) showed a relative viability (COR-L 105; first compound 5 µM) of 0.288, a relative viability (COR-L 105; first compound 15.81 µM) of 0.348 and a relative viability (COR-L 105; first compound 50 µM) of 0.321. For the same molecule, the relative viability (COR-L 105; first compound 158.11 µM) was 0.321, the relative viability (COR-L 105; first compound 500 µM) was 0.137 and the relative viability (NCI-H23; first compound 5 µM) was 0.348. The relative viability (NCI-H23; first compound 15.81 µM) was 0.284, the relative viability (NCI-H23; first compound 50 µM) was 0.337 and the relative viability (NCI-H23; first compound 158.11 µM) was 0.223. For the same molecule, the relative viability (NCI-H23; first compound 500 µM) was 0.0061, the relative viability (HCC-827; first compound 5 µM) was 0.451 and the relative viability (HCC-827; first compound 15.81 µM) was 0.388. The relative viability (HCC-827; first compound 50 µM) was 0.409, the relative viability (HCC-827; first compound 158.11 µM) was 0.375 and the relative viability (HCC-827; first compound 500 µM) was 0.292. It also gave a relative viability (LXF-289; first compound 5 µM) of 0.178, a relative viability (LXF-289; first compound 15.81 µM) of 0.142 and a relative viability (LXF-289; first compound 50 µM) of 0.176. For the same molecule, the relative viability (LXF-289; first compound 158.11 µM) was 0.0521, the relative viability (LXF-289; first compound 500 µM) was 0.0406 and the relative viability (UMC-11; first compound 5 µM) was 0.189. For the same molecule, the relative viability (UMC-11; first compound 15.81 µM) was 0.195, the relative viability (UMC-11; first compound 50 µM) was 0.183 and the relative viability (UMC-11; first compound 158.11 µM) was 0.127. It also gave a relative viability (UMC-11; first compound 500 µM) of 0.116, a relative viability (NCI-H2085; first compound 5 µM) of 0.769 and a relative viability (NCI-H2085; first compound 15.81 µM) of 0.683. It also gave a relative viability (NCI-H2085; first compound 50 µM) of 0.734, a relative viability (NCI-H2085; first compound 158.11 µM) of 0.386 and a relative viability (NCI-H2085; first compound 500 µM) of 0.105. It also gave a relative viability (NCI-H2405; first compound 5 µM) of 0.75, a relative viability (NCI-H2405; first compound 15.81 µM) of 0.616 and a relative viability (NCI-H2405; first compound 50 µM) of 0.625. The relative viability (NCI-H2405; first compound 158.11 µM) was 0.554, the relative viability (NCI-H2405; first compound 500 µM) was 0.533 and the relative viability (LC-2-ad; first compound 5 µM) was 0.45. It also gave a relative viability (LC-2-ad; first compound 15.81 µM) of 0.398, a relative viability (LC-2-ad; first compound 50 µM) of 0.459 and a relative viability (LC-2-ad; first compound 158.11 µM) of 0.267. It also gave a relative viability (LC-2-ad; first compound 500 µM) of 0.0577, a relative viability (H3255; first compound 5 µM) of 0.529 and a relative viability (H3255; first compound 15.81 µM) of 0.615. It also gave a relative viability (H3255; first compound 50 µM) of 0.579, a relative viability (H3255; first compound 500 µM) of 0.753 and a relative viability (LU99A; first compound 5 µM) of 0.299. It also gave a relative viability (LU99A; first compound 15.81 µM) of 0.298, a relative viability (LU99A; first compound 50 µM) of 0.293 and a relative viability (LU99A; first compound 158.11 µM) of 0.343. For the same molecule, the relative viability (LU99A; first compound 500 µM) was 0.34, the relative viability (LCLC-103H; first compound 5 µM) was 0.441 and the relative viability (LCLC-103H; first compound 15.81 µM) was 0.389. For the same molecule, the relative viability (LCLC-103H; first compound 50 µM) was 0.47, the relative viability (LCLC-103H; first compound 158.11 µM) was 0.387 and the relative viability (LCLC-103H; first compound 500 µM) was 0.424. It also gave a relative viability (NCI-H1437; first compound 5 µM) of 0.374, a relative viability (NCI-H1437; first compound 15.81 µM) of 0.39 and a relative viability (NCI-H1437; first compound 50 µM) of 0.407. The relative viability (NCI-H1437; first compound 158.11 µM) was 0.156, the relative viability (NCI-H1437; first compound 500 µM) was 0.131 and the relative viability (NCI-H1651; first compound 5 µM) was 0.705. The relative viability (NCI-H1651; first compound 15.81 µM) was 0.588, the relative viability (NCI-H1651; first compound 50 µM) was 0.77 and the relative viability (NCI-H1651; first compound 158.11 µM) was 0.275. For the same molecule, the relative viability (NCI-H1651; first compound 500 µM) was 0.109, the relative viability (201T; first compound 5 µM) was 0.913 and the relative viability (201T; first compound 15.81 µM) was 0.846. The relative viability (201T; first compound 50 µM) was 0.8, the relative viability (201T; first compound 158.11 µM) was 0.443 and the relative viability (201T; first compound 500 µM) was 0.209. The relative viability (NCI-H322M; first compound 5 µM) was 0.499, the relative viability (NCI-H322M; first compound 15.81 µM) was 0.452 and the relative viability (NCI-H322M; first compound 50 µM) was 0.499. It also gave a relative viability (NCI-H322M; first compound 158.11 µM) of 0.25, a relative viability (NCI-H322M; first compound 500 µM) of 0.0634 and a relative viability (CAL-12T; first compound 5 µM) of 0.284. For the same molecule, the relative viability (CAL-12T; first compound 15.81 µM) was 0.253, the relative viability (CAL-12T; first compound 50 µM) was 0.256 and the relative viability (CAL-12T; first compound 158.11 µM) was 0.0605. It also gave a relative viability (CAL-12T; first compound 500 µM) of 0.0057, a relative viability (LK-2; first compound 5 µM) of 0.173 and a relative viability (LK-2; first compound 15.81 µM) of 0.162. It also gave a relative viability (LK-2; first compound 50 µM) of 0.189, a relative viability (LK-2; first compound 158.11 µM) of 0.181 and a relative viability (LK-2; first compound 500 µM) of 0.139. The relative viability (BEN; first compound 5 µM) was 0.532, the relative viability (BEN; first compound 15.81 µM) was 0.47 and the relative viability (BEN; first compound 50 µM) was 0.495. For the same molecule, the relative viability (BEN; first compound 158.11 µM) was 0.535, the relative viability (BEN; first compound 500 µM) was 0.408 and the relative viability (HARA; first compound 15.81 µM) was 0.117. The relative viability (HARA; first compound 50 µM) was 0.0973, the relative viability (HARA; first compound 158.11 µM) was 0.0946 and the relative viability (HARA; first compound 500 µM) was 0.0096. The relative viability (NCI-H2228; first compound 5 µM) was 0.304, the relative viability (NCI-H2228; first compound 15.81 µM) was 0.204 and the relative viability (NCI-H2228; first compound 50 µM) was 0.236. It also gave a relative viability (NCI-H2228; first compound 158.11 µM) of 0.146, a relative viability (NCI-H2228; first compound 500 µM) of 0.112 and a relative viability (RERF-LC-KJ; first compound 5 µM) of 0.536. It also gave a relative viability (RERF-LC-KJ; first compound 15.81 µM) of 0.513, a relative viability (RERF-LC-KJ; first compound 50 µM) of 0.454 and a relative viability (RERF-LC-KJ; first compound 158.11 µM) of 0.188. The relative viability (RERF-LC-KJ; first compound 500 µM) was 0.0899, the relative viability (HCC-15; first compound 5 µM) was 0.514 and the relative viability (HCC-15; first compound 15.81 µM) was 0.367. It also gave a relative viability (HCC-15; first compound 50 µM) of 0.369, a relative viability (HCC-15; first compound 158.11 µM) of 0.29 and a relative viability (HCC-15; first compound 500 µM) of 0.112.
